{"source": "patent US5126291A", "about": "“Sulfur inhibitors of phospholipase A-Z” (American Cyanamid Company, priority 1990, dated 1992)", "key": {"porcine pancreatic PLA2": {"biological_target": "T1, porcine pancreatic PLA2 (Sus scrofa, UniProt P00592)", "T1 construct": "purchased Sigma", "T1 sequence (P00592 23-146)": "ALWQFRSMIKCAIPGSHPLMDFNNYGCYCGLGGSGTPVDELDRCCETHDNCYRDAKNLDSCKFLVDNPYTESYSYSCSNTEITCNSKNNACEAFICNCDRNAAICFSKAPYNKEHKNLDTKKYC", "assay": "Inhibition of porcine pancreatic phospholipase A2 (PLA2), radiochemical assay", "assay_type": "biochemical", "conditions": "for Percent Inhibition at 10 ug/ml / inhibition at 10 µg/mL: 10 ug/ml inhibitor; for inhibition at 10 µg/mL: read-out: Percent Inhibition at 10 ug/ml", "experimental": "4-((3-(Dimethylamino)propyl)thio)-1-(hexadecyloxy)-2-butanol, acetate was prepared by the method of Example 64 as a 1 mg/ml solution in methanol. Inhibition of phospholipase A2 activity was measured by a radiochemical assay in which labeled synthetic phosphatidylcholine substrate is converted by porcine pancreatic PLA2 to free radiolabeled arachidonate and lyso phosphatidyl choline. In the assay, radiolabeled arachidonate is extracted from the reaction mixture and separated from unreacted substrate by column or thin layer chromatography. The radioactivity (cpm) in samples is quantified in liquids scintillation counting.\n[…] The combined substrate was then redissolved in 0.1M Tris-HCl buffer, pH 9.0, containing 10 mM calcium chloride and 10 mM sodium taurocholate detergent. The mixture was sonicated for 10 to 30 seconds in a Kontes Sonifier to yield a homogeneous dispersion. The \"mixed\" micellar substrate was clear. An aliquot was reserved for a cpm count (total substrate). The total reaction volume was 500 ul; siliconized glassware or plasticware was used throughout. Porcine pancreatic phospholipase A2 enzyme (Sigma, sp. act. […] U/mg protein and preferably 900 U/mg protein) was diluted 1:750 or 1:1000 in 0.1M Tris-HCl buffer, pH 9.0 (without Ca^++ and detergent).\nThe test compound was diluted appropriately in phosphate buffered saline. 10 ul aliquots of the stock solution were either incubated with enzyme in buffer in the absence of Ca^++ detergent or were blown under N2 stream with the substrate prior to the addition of buffer. The substrate and buffer were kept on ice until the reaction was started by the addition of enzyme (preincubated with test compound or diluent, or fresh enzyme) to the substrate dispersion in buffer.\nSamples (600 ul) were extracted with 3 ml of CHC13 /MeOH solution (2:1) for thin layer chromatography. The phases were separated by gentle centrifugation at 700 rpm for 5 minutes. The organic phase was recovered for either thin layer or column chromatography separation.\nFor thin layer chromatography, labeled arachidonate extracted with CHC13 /MeOH solution was separated on Silica Gel G TLC plates (Analtech). Twenty ul of a 2 mg/ml internal standard solution of arachidonic acid (Sigma) was combined with 2 to 3 ml of the organic phase. The entire mixture was dried under nitrogen and redissolved in 50 ul of CHC13 /MeOH solution (2:1). A 20 ul sample was counted in 10 ml of Beckman Redi-solv Scintillation fluid HP and spotted in Silica Gel G plates. The solvent system used to develop the plate was a CHC13 /MeOH/13.5N NH3 /H2 O solution (70:30:4:1). Thin layer chromatography plates were developed in a glass chamber for 1 to 11/2 hours, air dried, and the spots visualized in an iodine vapor chamber. Standards of phosphatidyl/choline, lyso phosphatidyl choline, and arachidonic acid (Sigma) were made up as 2 mg/ml stocks in CHC13 /MeOH solution (2:1) and were spotted on the thin layer chromatography plates. Spots corresponding to arachidonate and phospholipid were scraped and counted in 10 ml Beckman Redi-Solv HP scintillation fluid.\nFor column chromatography, samples were extracted with hexane/diether solution and the upper organic phase recovered. An aliquot was applied to a Silicar CC4 (Maleinckrodt) column. Columns were prepared using 1 ml of 1:1 slurry of Silicar CC4 (Maleinckrodt) in hexane/ether solution in a Pasteur pipet (approximately 2 cm height). Columns were rinsed with 500 ul of hexane/ether solution before adding the sample (300-600 ul) to the columns. Columns were eluted with a total of 6 ml of hexane/ether solution. The 6 ml sample was counted in 10 ml of Beckman Redi-Solv HP scintillation fluid. Thin layer chromatography analysis confirmed that the radioactivity eluted was arachidonate.\n3-((3-(Acetyloxy)-4-(hexadecyloxy)-butyl)-thio)-N,N,N-trimethyl-1-propanaminium, iodide was prepared by the method of Example 65 as a 1 mg/ml solution in methanol. […]"}, "[1]": {"system": "spontaneously hypertensive rats", "assay": "Hypotensive activity: mean arterial blood pressure in conscious cannulated spontaneously hypertensive rats, intravenous", "assay_type": "in vivo", "conditions": "for Peak Mean Arterial Blood Pressure: spontaneously hypertensive rats, intravenous"}, "[2]": {"conditions": "1000 uM substrate concentration"}}, "note": "Structures can show the parent of a compound that is named as a salt. Where two headings read alike, the source gives them in different places.", "data": [{"compound": "3-((3-(Acetyloxy)-4-(hexadecyloxy)-butyl)-thio)-N,N,N-trimethyl-1-propanaminium, chloride [Example 69]", "values": [{"measurement": "Ic50", "setting": "porcine pancreatic PLA2; 2 nM substrate concentration", "result": 2.8, "unit": "µg/mL"}, {"measurement": "Ic50", "setting": "porcine pancreatic PLA2; 10 uM substrate concentration", "result": "11.52 ± 10.58", "unit": "µg/mL"}, {"measurement": "Percent Inhibition at 10 ug/ml", "setting": "porcine pancreatic PLA2; 2 nM substrate concentration", "result": 77, "unit": "%"}, {"measurement": "Percent Inhibition at 10 ug/ml", "setting": "porcine pancreatic PLA2; 10 uM substrate concentration", "result": "55.3 ± 16.5", "unit": "%"}, {"measurement": "Percent Inhibition at 10 ug/ml", "setting": "porcine pancreatic PLA2; 100 uM substrate concentration", "result": 23, "unit": "%"}, {"measurement": "Ic50", "setting": "porcine pancreatic PLA2; 100 uM substrate concentration", "result": "45.56 ± 23.60", "unit": "µg/mL"}]}, {"compound": "CCCCCCCCCCCCCCCCOCC(COP(=O)([O-])OCC(C)[N+](C)(C)C)OC(C)=O", "note": "(stereo not shown) [8-(Acetyloxy)-5-hydroxy-N,N-N-trimethyl-4,6,10-trioxa-5-phosphahexacosan-2-aminium, 5-oxide, hydroxide, inner salt]", "values": [{"measurement": "Peak Mean Arterial Blood Pressure", "setting": "[1]; dose 0.03 ug/kg", "result": "-16.4 mm,Hg"}, {"measurement": "Peak Mean Arterial Blood Pressure", "setting": "[1]; dose 0.1 ug/kg", "result": "-36.3 mm,Hg"}, {"measurement": "Peak Mean Arterial Blood Pressure", "setting": "[1]; dose 0.3 ug/kg", "result": "-58.6 mm,Hg"}, {"measurement": "Peak Mean Arterial Blood Pressure", "setting": "[1]; dose 1.0 ug/kg", "result": "-103.1 mm,Hg"}, {"measurement": "Peak Mean Arterial Blood Pressure", "setting": "[1]; dose 3.0 ug/kg", "result": "-118.3 mm,Hg"}]}, {"compound": "CCCCCCCCCCCCCCCCOCC(CCS(=O)(=O)CCC[N+](C)(C)C)OC(C)=O.[Cl-]", "note": "(stereo not shown) [3-((3-(Acetyloxy)-4-(hexadecyloxy)butyl)sulfonyl)-N,N,N-trimethyl-1-propanaminium chloride]", "values": [{"measurement": "reduced the blood pressure in the spontaneously hypertensive rat", "setting": "[1]; dose of 10 mg/kg (iv), value is a reduction", "result": 20, "unit": "mm Hg"}]}, {"compound": "CCCCCCCCCCCCCCCCOCC(CCSCCCN(C)C)OC(C)=O", "note": "(stereo not shown) [Example 67, 4-((3-(Dimethylamino)propyl)thio)-1-(hexadecyloxy)-2-butanol, acetate]", "values": [{"measurement": "IC50", "setting": "porcine pancreatic PLA2; 2 nM substrate concentration", "result": 18.6, "unit": "µM"}, {"measurement": "IC50", "setting": "porcine pancreatic PLA2; 10 uM substrate concentration", "result": 45.7, "unit": "µM"}, {"measurement": "inhibition at 10 µg/mL", "setting": "porcine pancreatic PLA2; 2 nM substrate concentration", "result": 54, "unit": "%"}, {"measurement": "inhibition at 10 µg/mL", "setting": "porcine pancreatic PLA2; 10 uM substrate concentration", "result": "33 ± 12.7", "unit": "%"}, {"measurement": "IC50", "setting": "porcine pancreatic PLA2; 100 uM substrate concentration", "result": 96.7, "unit": "µM"}, {"measurement": "IC50", "setting": "porcine pancreatic PLA2; 500 uM substrate concentration", "result": 226, "unit": "µM"}]}, {"compound": "CCCCCCCCCCCCCCCCOCC(COP(=O)([O-])OCC(c1ccccc1)[N+](C)(C)C)OC(C)=O", "note": "(stereo not shown) [7-(Acetyloxy)-4-hydroxy-N,N,N-trimethyl-1-phenyl-3,5,9-trioxa-4-phosphapentacosan-1-aminium, 4-oxide hydroxide inner salt]", "values": [{"measurement": "Peak Mean Arterial Blood Pressure", "setting": "[1]; dose 10.0 ug/kg", "result": "-59.0 mm,Hg"}]}, {"compound": "CCCCCCCCCCCCCCCCOCC(COP(=O)([O-])Oc1cccc(C[N+](C)(C)C)c1)OC(C)=O", "note": "(stereo not shown) [3-(((2-(Acetyloxy)-3-(hexadecyloxy)propoxy)hydroxyphosphinyl)oxy)-N,N,N-trimethylbenzenemethanaminium, hydroxide inner salt]", "values": [{"measurement": "Peak Mean Arterial Blood Pressure", "setting": "[1]; dose 0.1 ug/kg", "result": "-10.4 mm,Hg"}, {"measurement": "Peak Mean Arterial Blood Pressure", "setting": "[1]; dose 0.3 ug/kg", "result": "-16.3 mm,Hg"}, {"measurement": "Peak Mean Arterial Blood Pressure", "setting": "[1]; dose 1.0 ug/kg", "result": "-37.2 mm,Hg"}, {"measurement": "Peak Mean Arterial Blood Pressure", "setting": "[1]; dose 3.0 ug/kg", "result": "-83.9 mm,Hg"}, {"measurement": "Peak Mean Arterial Blood Pressure", "setting": "[1]; dose 10.0 ug/kg", "result": "-91.0 mm,Hg"}]}, {"compound": "CCCCCCCCCCCCCCCCOCC(COP(=O)([O-])OC(C)C[N+](C)(C)C)OC(C)=O", "note": "(stereo not shown) [7-(Acetyloxy)-4-hydroxy-N,N,N,2-tetramethyl-3,5,9-trioxa-4-phosphapentacosan-1-aminium, 4-oxide, hydroxide, inner salt]", "values": [{"measurement": "Peak Mean Arterial Blood Pressure", "setting": "[1]; dose 0.3 ug/kg", "result": "-17.4 mm,Hg"}, {"measurement": "Peak Mean Arterial Blood Pressure", "setting": "[1]; dose 1.0 ug/kg", "result": "-40.2 mm,Hg"}, {"measurement": "Peak Mean Arterial Blood Pressure", "setting": "[1]; dose 3.0 ug/kg", "result": "-88.8 mm,Hg"}, {"measurement": "Peak Mean Arterial Blood Pressure", "setting": "[1]; dose 10.0 ug/kg", "result": "-96.5 mm,Hg"}, {"measurement": "Peak Mean Arterial Blood Pressure", "setting": "[1]; dose 30.0 ug/kg", "result": "-103.4 mm,Hg"}]}, {"compound": "CCCCCCCCCCCCCCc1cccc(OCC(COP(=O)([O-])OCC(C)[N+](C)(C)C)OC(C)=O)c1", "note": "(stereo not shown) [7-Hydroxy-N,N,N-trimethyl-2-oxo-4-((3-tetradecylphenoxy)methyl)3,6,8-trioxa-7-phosphaundecan-10-aminium, 7-oxide, hydroxide, inner salt]", "values": [{"measurement": "Peak Mean Arterial Blood Pressure", "setting": "[1]; dose 0.03 ug/kg", "result": "-9.8 mm,Hg"}, {"measurement": "Peak Mean Arterial Blood Pressure", "setting": "[1]; dose 0.1 ug/kg", "result": "-17.6 mm,Hg"}, {"measurement": "Peak Mean Arterial Blood Pressure", "setting": "[1]; dose 0.3 ug/kg", "result": "-78.7 mm,Hg"}, {"measurement": "Peak Mean Arterial Blood Pressure", "setting": "[1]; dose 1.0 ug/kg", "result": "-95.9 mm,Hg"}]}, {"compound": "CCCCCCCCCCCCCCCCOCC(CCSCCC[N+](C)(C)C)OC(C)=O", "note": "(stereo not shown) [Example 68, 3-((3-(Acetyloxy)-4-(hexadecyloxy)-butyl)-thio)-N,N,N-trimethyl-1-propanaminium, iodide]", "values": [{"measurement": "IC50", "setting": "porcine pancreatic PLA2; 2 nM substrate concentration", "result": 2.52, "unit": "µM"}, {"measurement": "IC50", "setting": "porcine pancreatic PLA2; 10 uM substrate concentration", "result": 10.1, "unit": "µM"}, {"measurement": "inhibition at 10 µg/mL", "setting": "porcine pancreatic PLA2; 2 nM substrate concentration", "result": "96.6 ± 4.6", "unit": "%"}, {"measurement": "inhibition at 10 µg/mL", "setting": "porcine pancreatic PLA2; 10 uM substrate concentration", "result": "63.2 ± 13.5", "unit": "%"}, {"measurement": "inhibition at 10 µg/mL", "setting": "porcine pancreatic PLA2; 100 uM substrate concentration", "result": "45 ± 13.6", "unit": "%"}, {"measurement": "inhibition at 10 µg/mL", "setting": "porcine pancreatic PLA2; 500 uM substrate concentration", "result": "15.4 ± 5.7", "unit": "%"}, {"measurement": "inhibition at 10 µg/mL", "setting": "porcine pancreatic PLA2; [2]", "result": "8.2 ± 4.6", "unit": "%"}, {"measurement": "IC50", "setting": "porcine pancreatic PLA2; 100 uM substrate concentration", "result": 20, "unit": "µM"}, {"measurement": "IC50", "setting": "porcine pancreatic PLA2; 500 uM substrate concentration", "result": 96.8, "unit": "µM"}, {"measurement": "IC50", "setting": "porcine pancreatic PLA2; [2]", "result": 137, "unit": "µM"}]}]}
